Tests used:
CYP158A1 [1] = target: CYP158A1 (Streptomyces coelicolor, UniProt Q9KZF5, K90I); test: UV-vis difference spectral titration; format: binding
CYP158A1 [2] = target: CYP158A1 (Streptomyces coelicolor, UniProt Q9KZF5); test: UV-vis difference spectral titration; format: binding
Sequence of CYP158A1 (Streptomyces coelicolor, UniProt Q9KZF5) (Q9KZF5 whole entry): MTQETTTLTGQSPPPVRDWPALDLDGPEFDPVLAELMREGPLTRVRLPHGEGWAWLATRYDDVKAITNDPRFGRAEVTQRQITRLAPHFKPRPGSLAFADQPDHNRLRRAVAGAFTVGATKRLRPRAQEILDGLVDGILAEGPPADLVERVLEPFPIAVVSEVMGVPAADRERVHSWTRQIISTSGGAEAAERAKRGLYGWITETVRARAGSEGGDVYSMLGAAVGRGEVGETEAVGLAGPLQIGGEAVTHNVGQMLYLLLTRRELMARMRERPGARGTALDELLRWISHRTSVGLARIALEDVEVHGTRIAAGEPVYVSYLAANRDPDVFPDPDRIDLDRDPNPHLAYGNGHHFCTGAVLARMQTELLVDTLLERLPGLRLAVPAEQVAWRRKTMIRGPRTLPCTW

Sequence of CYP158A1 (Streptomyces coelicolor, UniProt Q9KZF5, K90I) (Q9KZF5 whole entry K90I): as the sequence (Q9KZF5 whole entry) above, with K90I counted along it

O=C1C(O)=CC(=O)c2c(O)cc(O)cc21 [flaviolin]
Kd (CYP158A1 [1]): 16.9 µM | Kd (CYP158A1 [2]): 10.5 µM
